According to patent US9534008B2, “Small molecule compounds that control plant- and insect-pathogenic nematodes” (California Institute of Technology, priority 2011, dated 2017):

Tests used:
C. elegans dauer larvae = experiment: Dispersal assay, C. elegans dauer; format: in vivo; settings: for dispersing nematodes, normalized to percent of the positive control response: physiological concentration, with 0.25% E. coli (HB101), positive control dauer conditioned medium; for substitution for ascr#2 in the C. elegans dispersal blend: in vivo
Description: C. elegans dauer juveniles were washed with MILLI-Q water 3 times, placed into 6 cm petri dishes with a small amount of water, and rested overnight. Approximately 200-300 nematodes in 10 μl of water were placed on an agar plate, to which 2 μl of treatment was added. The liquid culture that produced 60% dauer animals was centrifuged, filtered with a 0.45 μm filter, and used as a positive control for dispersal. Thereafter, media were lyophilized and resuspended in MILLI-Q water 5 times. 2 μl to 10 μl of nematode suspension was used for the assay. As a negative control, 0.5% E. coli (HB101) was prepared in S-complete, lyophilized, and adjusted to the final volume of 0.25% E. coli in the assay.
Nematodes were quantified using Image J software (Image Processing and Analysis in Java, National Institutes of Health). The number of nematodes visualized and counted using Image J is illustrated in FIG. 63B. Nematodes inside the circle were subtracted manually from the total number of worms counted because of the location of their placement. Each treatment was replicated 9-11 times. The graph was normalized to the positive control, the dauer conditioned medium.

C. elegans males = experiment: Attraction assay (long-range, point source); settings: in vivo
Description: 10 cm standard chemotaxis plates were prepared (Bargmann et al., Cell 74:515-27 (1993), which is hereby incorporated by reference in its entirety) and stored at 4° C. until the day before use. Standard 1 cm-diameter copper pipes were sectioned into 1 cm-tall segments to use for the holding chambers. The females/hermaphrodites were isolated overnight, washed 3 times in M9 buffer, and then allowed to wander on a plate pre-conditioned with 50 uL of 1000× streptomycin for 2 hours to kill any bacteria that might produce a false positive attractant. The nematodes were then washed 3 times, and the supernatant from the last wash was placed in a copper chamber, as the control, 1 cm from the border of the 10 cm plate. The nematodes were suspended in M9 within the copper chamber, 1 cm from the border opposite the control chamber. After 6 hours, they were subsequently removed and replaced with 3 μL of 1M sodium azide. 100 C. elegans adult males were isolated overnight, washed several times in ddH2O, and placed at the center of the agar plate. After several hours, males paralyzed within 2 cm of each region were scored. The Chemotaxis Index (Bargmann et al., Cell 74:515-27 (1993), which is hereby incorporated by reference in its entirety) was then used to score male chemotaxis to either point source.

C. elegans [1] = settings: from 1 μM concentration; cited from earlier work
S. feltiae = experiment: Ascaroside function (Table 12), S. feltiae; format: in vivo, Steinernema feltiae
Description: (§1) Various ascarosides and ascaroside blends were administered to various nematodes described below (Table 12). […] A very strong result of affecting nematode behavior is designated in the table as “strong.”

C. elegans [2] = settings: in vivo; cited from earlier work
C. elegans [3] = experiment: Ascaroside function (Table 12), C. elegans; format: in vivo, Caenorhabditis elegans; set-up: key to Attract Females/Herm. / Promote Dauer Formation / Attract Males: A very strong result of affecting nematode behavior is designated in the table as “strong.”
Description: as §1

S. glaseri = experiment: Ascaroside function (Table 12), S. glaseri; format: in vivo
Description: as §1

[4] = test system: several of the tested nematode species; experiment: Retention assay, across species; format: in vivo; settings: 1 nM, 1 μM and 1 mM tested
Description: OP50 E. coli was grown on a standard 5 cm agar plate (made with standard Nematode Growth Medium). The bacterial lawn was 16 mm in diameter and was grown overnight at 20° C. before being used in trials. Two 4 mm spots (0.6 μL) were placed on opposite sides of the bacterial lawn (using a transparent template to guide spot placement), and several minutes elapsed for the liquid to settle in before placing nematodes down on the assay. Recording began immediately upon worm placement. 0.6 μL of the control was placed on one side of the lawn, and 0.6 μL of the experimental cue was placed on the other side of the lawn, changing the location of the cue throughout trials between left/right and top/bottom to avoid bias.
Nematodes were isolated by gender at the L4 stage the day before being used in trials as developed adults. Worms were evenly divided and placed at two points equidistant from the foci of the scoring region. Trials were recorded for 20 minutes, and frames were collected for analysis at 1 frame per second. Results were averaged from at least three different trials. For every nematode species in this study, a different total number of worms (using water in both scoring regions) was tested to determine the minimum number of worms necessary for consistent unbiased results over a 20 minute trial. The total number of worms used in the multiple species assays depended on that species' optimal parameters. 10 worms were used for P. redivivus males and females, 20 worms were used for C. elegans males and O. dolichuridae males, and 14 worms were used for S. glaseri males. The Automated Software was used to compare worm occupancy in each scoring region over time, and the Chemotaxis Index (Bargmann et al., Cell 74:515-27 (1993), which is hereby incorporated by reference in its entirety) was adapted to score preference or avoidance to each ascaroside.
A video camera attached to the microscope produced a digital video stream, which was then analyzed. The ratio of the time the average worm spent in each region of interest was calculated for every trial. For ease of implementation, all worms in a single experiment were assumed to be roughly the same size. Thus worm pixels were counted instead of whole worms, allowing fractions of a worm in the region of interest to be taken into account. It also eliminated the need for a shape-based worm identification algorithm, and allowed each frame to be analyzed independently. A band-pass filter was applied to each frame to eliminate the effect of uneven lighting and also accentuate the worms against the background. The worm was then identified after thresholding the filtered image. Throughout each experiment, the locations and sizes of the regions of interest were known. Through the filtering described above, it is known which pixels are occupied by worms and which ones are not. Thus, the ratio of worm-pixels to all pixels inside the region of interest can be calculated to produce the worm-occupancy ratio. This calculation was done for every frame, giving a plot output of worm-occupancy ratio vs. time for each region.

Panagrellus redivivus = experiment: Ascaroside function (Table 12), Panagrellus redivivus; format: in vivo
Description: as §1

[5] = test system: Meloidogyne javanica, M. floridensis, M. incognita, M. hapla; experiment: Ascaroside function (Table 12), root-knot nematodes; format: in vivo, Meloidogyne spp.; settings: Meloidogyne javanica, M. floridensis, M. incognita, M. hapla
Description: as §1

[6] = test system: Heterorhabditis bacteriophora, H. zealandica, H. floridensis; experiment: Ascaroside function (Table 12), Heterorhabditis; format: in vivo, Heterorhabditis spp.; settings: Heterorhabditis bacteriophora, H. zealandica, H. floridensis
Description: as §1

S. feltiae IJs = experiment: Dispersal assay, S. feltiae IJs; format: in vivo; settings: physiologically relevant concentrations
Description: S. feltiae IJs were washed with MILLI-Q water three times and incubated in 6 cm petri dishes for […] with a small amount (4-5 ml) of MILLI-Q water. Nematodes were placed the following day on a 10.7 g/L agar with 1010 g/cm^2 gel strength (PhytoTechnology Lab. Shawnee Mission, Kans.). Nematode behavior was assayed on multiple plates with internal plate replicates to rule out the possibility that behavior was affected by plate composition. Approximately 300 IJs in 10 μl water were placed on an agar medium and the test compounds or extracts (1-2 μl) were placed into the nematode suspension. Upon absorption (˜15 minutes) of the liquid, the freely moving nematodes were video recorded for 5-10 minutes. Dispersal behavior is temperature and season dependent. During winter, the assay is effective at room temperature (22±1° C.). During summer, the assay requires a temperature controlled environment due to the effects on nematode behavior above 23° C.
For entomopathogenic nematodes (EPN), insect cadavers are known to promote dispersal behavior of the IJ stage (Shapiro-Ilan et al., J. Invertebr. Pathol. 83:270-72 (2003), which is hereby incorporated by reference in its entirety). An assay was therefore developed to identify compounds in consumed insect cadavers that promote dispersal. Approximately 300 IJs of S. feltiae in 10 μl of water were placed on an agar plate (FIG. 64B). […]

[7] = test system: Steinernema riobrave, S. diaprepesi, S carpocapse; experiment: Ascaroside function (Table 12), Steinernema riobrave group; format: in vivo, Steinernema spp.
Description: as §1

Row | Compound | dispersing nematodes, normalized to percent of the positive control response (C. elegans dauer larvae) | C. elegans male chemotaxis to a point source (C. elegans males) | amount eliciting C. elegans male attraction from a distance (as low as) (C. elegans males) | most active amount for attraction in C. elegans (C. elegans [1]) | Dispersal (of dauer larvae, infectious juveniles) (S. feltiae) | dauer-inducing activity (C. elegans [2]) | Attract Males (C. elegans [3]) | Dispersal (of dauer larvae, infectious juveniles) (C. elegans [3]) | Promote Dauer Formation (C. elegans [3]) | Attract Males (S. glaseri) | preference for areas conditioned by ascaroside [4] | Attract Females/Herm. (Panagrellus redivivus) | Attract Males (Panagrellus redivivus) | Dispersal (of dauer larvae, infectious juveniles) [5] | Repel Females/Herm. [5] | Dispersal (of dauer larvae, infectious juveniles) [6] | substitution for ascr#2 in the C. elegans dispersal blend (C. elegans dauer larvae) | substitution for ascr#2 in the C. elegans dispersal blend (C. elegans dauer larvae; listed as Ascr#9) | dispersal activity when tested alone (S. feltiae IJs) | Dispersal (of dauer larvae, infectious juveniles) [7]
1 | CC(=O)CCC[C@@H](C)O[C@@H]1O[C@@H](C)[C@H](O)C[C@H]1O [ascr#2] | 40% | chemotax towards | ≤ 500 attomol | ~1 pmol | ascr#2 | promote dauer entry | ascr#2 | ascr#2 | ([strong]) |  |  |  |  |  |  |  |  |  |  | 
2 | C[C@H](CC/C=C/C(=O)Nc1ccc(C(=O)O)cc1)O[C@@H]1O[C@@H](C)[C@H](O)C[C@H]1O [ascr#8] | 50% | not active |  |  | ascr#8 | promote dauer entry | ascr#8 | ascr#8 | ([strong]) | ascr#8 | preferred | ascr#8 | ascr#8 |  |  |  |  |  |  | 
3 | C[C@H](CCC(=O)O)O[C@@H]1O[C@@H](C)[C@H](O)C[C@H]1O [ascr#9] |  |  |  |  | ascr#9 |  | ascr#9 |  |  |  | preferred |  | ascr#9 | ascr#9 | ascr#9 | ascr#9 | can replace | able to substitute | did not have activity | ascr#9
4 | C[C@H](CC(=O)O)O[C@@H]1O[C@@H](C)[C@H](O)C[C@H]1O [ascr#11] |  |  |  |  |  |  |  |  |  |  |  |  |  |  |  |  |  |  | did not have activity | ascr#11
